Measured values reported in US11084829B2, “Ubiquitin-specific-processing protease 7 (USP7) modulators and uses thereof” (RAPT THERAPEUTICS, INC., priority 2018, dated 2021).
pIC50: −log10 of the molar value.

biological target: USP7 (Homo sapiens, UniProt Q93009); assay: USP7 inhibitory potency (IC50); assay type: biochemical
Method: Activity for compounds described herein is provided in Table 2, wherein potency levels are provided as follows: (Potency: USP7 IC50: A<0.01 μM; B=0.01-0.1 μM; C=>0.1 μM.

Sequence of USP7 (Q93009 whole entry): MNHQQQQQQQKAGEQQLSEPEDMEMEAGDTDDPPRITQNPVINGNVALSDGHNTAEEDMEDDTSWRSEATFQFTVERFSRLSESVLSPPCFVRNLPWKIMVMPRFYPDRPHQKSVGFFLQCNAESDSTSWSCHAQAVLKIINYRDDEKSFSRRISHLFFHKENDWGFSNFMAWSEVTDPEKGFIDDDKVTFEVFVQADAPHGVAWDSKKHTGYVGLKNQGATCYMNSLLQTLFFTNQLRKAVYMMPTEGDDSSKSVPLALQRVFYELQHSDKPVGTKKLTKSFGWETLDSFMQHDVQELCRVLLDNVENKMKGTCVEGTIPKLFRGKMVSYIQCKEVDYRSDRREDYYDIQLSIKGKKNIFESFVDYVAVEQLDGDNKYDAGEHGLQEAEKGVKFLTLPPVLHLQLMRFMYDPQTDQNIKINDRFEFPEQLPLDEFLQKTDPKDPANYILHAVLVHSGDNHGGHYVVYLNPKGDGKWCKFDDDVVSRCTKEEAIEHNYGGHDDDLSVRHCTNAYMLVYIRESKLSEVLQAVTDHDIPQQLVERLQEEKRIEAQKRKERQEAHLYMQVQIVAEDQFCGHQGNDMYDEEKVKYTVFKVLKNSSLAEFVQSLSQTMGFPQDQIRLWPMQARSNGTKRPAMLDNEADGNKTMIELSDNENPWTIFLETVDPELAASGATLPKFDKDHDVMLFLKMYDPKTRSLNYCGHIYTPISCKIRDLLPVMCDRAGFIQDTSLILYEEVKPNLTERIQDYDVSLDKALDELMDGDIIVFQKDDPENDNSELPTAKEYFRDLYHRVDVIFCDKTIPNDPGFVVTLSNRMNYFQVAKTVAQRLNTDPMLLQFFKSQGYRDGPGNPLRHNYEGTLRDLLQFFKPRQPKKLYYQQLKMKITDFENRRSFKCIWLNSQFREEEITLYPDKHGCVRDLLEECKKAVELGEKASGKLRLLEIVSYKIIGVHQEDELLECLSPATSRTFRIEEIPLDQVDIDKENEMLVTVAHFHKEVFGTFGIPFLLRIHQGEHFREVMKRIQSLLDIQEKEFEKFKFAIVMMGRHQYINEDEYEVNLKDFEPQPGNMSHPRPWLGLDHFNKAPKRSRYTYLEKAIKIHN

Row | pIC50 | Compound
1 | 7.00 to 8.00 | Cc1cc(Cl)cc(-c2ncnc3cc(CN4C(=O)CCC4(C)C#N)sc23)c1CC1CNCC(C)(C)O1 (stereo not shown) [Example 195, 1-((4-(5-chloro-2-((6,6-dimethylmorpholin-2-yl)methyl)-3-methylphenyl)thieno[3,2-d]pyrimidin-6-yl)methyl)-2-methyl-5-oxopyrrolidine-2-carbonitrile]
2 | > 8.00 | CC1(C)CNCC(Cc2c(-c3ncnc4cc(CN5C(=O)C6CC6C5=O)sc34)cc(Cl)cc2C(F)F)O1 (stereo not shown) [Example 250, 3-((4-(5-chloro-3-(difluoromethyl)-2-((6,6-dimethylmorpholin-2-yl)methyl)phenyl)thieno[3,2-d]pyrimidin-6-yl)methyl)-3-azabicyclo[3.1.0]hexane-2,4-dione]
3 | < 7.00 | Cc1cc(Cl)cc(-c2ncnc3cc(CN4C(=O)CCC4C)sc23)c1CN1[C@@H](C)CNC[C@@H]1C (stereo partly drawn) [Example 91, 1-((4-(5-chloro-2-(((2S,6S)-2,6-dimethylpiperazin-1-yl)methyl)-3-methylphenyl)thieno[3,2-d]pyrimidin-6-yl)methyl)-5-methylpyrrolidin-2-one]
4 | > 8.00 | Cc1cc(Cl)cc(-c2ccnc3cc(CN4C(=O)C5CC5C4=O)sc23)c1CC1CNCC2(CCC2)O1 (stereo not shown) [Example 131, 3-((7-(2-((5-oxa-8-azaspiro[3.5]nonan-6-yl)methyl)-5-chloro-3-methylphenyl)thieno[3,2-b]pyridin-2-yl)methyl)-3-azabicyclo[3.1.0]hexane-2,4-dione]
5 | > 8.00 | Cc1cc(Cl)cc(-c2ncnc3cc(CN4C(=O)C5CC5C4=O)sc23)c1CN1[C@@H](C)CNC[C@@H]1C (stereo partly drawn) [Example 57, 3-((4-(5-chloro-2-(((2S,6S)-2,6-dimethylpiperazin-1-yl)methyl)-3-methylphenyl)thieno[3,2-d]pyrimidin-6-yl)methyl)-3-azabicyclo[3.1.0]hexane-2,4-dione]
6 | > 8.00 | Cc1cc(Cl)cc(-c2ncnc3cc(CN4C(=O)C5CC5C4=O)sc23)c1CN1CCNC[C@@H]1C (stereo partly drawn) [Example 51, 3-((4-(5-chloro-3-methyl-2-(((S)-2-methylpiperazin-1-yl)methyl)phenyl)thieno[3,2-d]pyrimidin-6-yl)methyl)-3-azabicyclo[3.1.0]hexane-2,4-dione]
7 | > 8.00 | Cc1cc(Cl)cc(-c2ncnc3cc(Cn4c(=O)ccn(C)c4=O)sc23)c1CC1CNCC(C)(C)O1 (stereo not shown) [Example 192, 3-((4-(5-chloro-2-((6,6-dimethylmorpholin-2-yl)methyl)-3-methylphenyl)thieno[3,2-d]pyrimidin-6-yl)methyl)-1-methylpyrimidine-2,4(1H,3H)-dione]
8 | 7.00 to 8.00 | Cc1cc(Cl)cc(-c2ncnc3cc(CN4C(=O)C5CC5C4=O)sc23)c1CC1CNC(C)(C)CO1 (stereo not shown) [Example 158, 3-((4-(5-chloro-2-((5,5-dimethylmorpholin-2-yl)methyl)-3-methylphenyl)thieno[3,2-d]pyrimidin-6-yl)methyl)-3-azabicyclo[3.1.0]hexane-2,4-dione]
9 | > 8.00 | Cc1cc(Cl)cc(-c2ccnc3cc(CN4C(=O)C5C(C4=O)C5(C)C)sc23)c1CN1[C@@H](C)CNC[C@@H]1C (stereo partly drawn) [Example 28, 3-((7-(5-chloro-2-(((2S,6S)-2,6-dimethylpiperazin-1-yl)methyl)-3-methylphenyl)thieno[3,2-b]pyridin-2-yl)methyl)-6,6-dimethyl-3-azabicyclo[3.1.0]hexane-2,4-dione]
10 | 7.00 to 8.00 | Cc1cc(Cl)cc(-c2ccnc3c(F)c(CN4C(=O)CCN(C)C4=O)sc23)c1C[C@@H]1CNCCO1 [Example 148, (R)-3-((7-(5-chloro-3-methyl-2-(morpholin-2-ylmethyl)phenyl)-3-fluorothieno[3,2-b]pyridin-2-yl)methyl)-1-methyldihydropyrimidine-2,4(1H,3H)-dione]
11 | > 8.00 | Cc1cc(Cl)cc(-c2ncnc3cc(CN4C(=O)C5CC5C4=O)sc23)c1C[C@@H]1CNC[C@@H](C)O1 (stereo partly drawn) [Example 155, 3-((4-(5-chloro-3-methyl-2-(((2R,6R)-6-methylmorpholin-2-yl)methyl)phenyl)thieno[3,2-d]pyrimidin-6-yl)methyl)-3-azabicyclo[3.1.0]hexane-2,4-dione]
12 | > 8.00 | Cc1cc(Cl)cc(-c2ncnc3cc(CN4C(=O)N(C)C(C)(C)C4=O)sc23)c1C[C@@H]1CNCC(C)(C)O1 [Example 233, (R)-3-((4-(5-chloro-2-((6,6-dimethylmorpholin-2-yl)methyl)-3-methylphenyl)thieno[3,2-d]pyrimidin-6-yl)methyl)-1,5,5-trimethylimidazolidine-2,4-dione]
13 | > 8.00 | Cc1cc(Cl)cc(-c2ncnc3cc(Cn4c(=O)ccn(C5CC5)c4=O)sc23)c1CC1CNCCO1 (stereo not shown) [Example 165, 3-((4-(5-chloro-3-methyl-2-(morpholin-2-ylmethyl)phenyl)thieno[3,2-d]pyrimidin-6-yl)methyl)-1-cyclopropylpyrimidine-2,4(1H,3H)-dione]
14 | > 8.00 | Cc1cc(Cl)cc(-c2ccnc3cc([C@H](C)N4C(=O)C5CC5C4=O)sc23)c1C[C@@H]1CNCC(C)(C)O1 (stereo partly drawn) [Example 137, 3-((S)-1-(7-(5-chloro-2-(((R)-6,6-dimethylmorpholin-2-yl)methyl)-3-methylphenyl)thieno[3,2-b]pyridin-2-yl)ethyl)-3-azabicyclo[3.1.0]hexane-2,4-dione]
15 | < 7.00 | Cc1ccc(CN2CCNC[C@@H]2C)c(-c2ncnc3cc(CN4C(=O)C5CC5C4=O)sc23)c1 (stereo partly drawn) [Example 62, 3-((4-(5-methyl-2-(((S)-2-methylpiperazin-1-yl)methyl)phenyl)thieno[3,2-d]pyrimidin-6-yl)methyl)-3-azabicyclo[3.1.0]hexane-2,4-dione]
16 | > 8.00 | Cc1cc(Cl)cc(-c2ncnc3cc(CN4C(=O)CCC4=O)sc23)c1CC1CNCCO1 (stereo not shown) [Example 153, 1-((4-(5-chloro-3-methyl-2-(morpholin-2-ylmethyl)phenyl)thieno[3,2-d]pyrimidin-6-yl)methyl)pyrrolidine-2,5-dione]
17 | > 8.00 | Cc1cc(Cl)cc(-c2ncnc3cc(CN4C(=O)NC(C(C)C)C4=O)sc23)c1C[C@@H]1CNCCO1 (stereo partly drawn) [Example 246, 3-((4-(5-chloro-3-methyl-2-(((R)-morpholin-2-yl)methyl)phenyl)thieno[3,2-d]pyrimidin-6-yl)methyl)-5-isopropylimidazolidine-2,4-dione]
18 | 7.00 to 8.00 | Cc1cc(Cl)cc(-c2ccnc3c(F)c(CN4C(=O)CNC4=O)sc23)c1C[C@@H]1CNCCO1 [Example 147, (R)-3-((7-(5-chloro-3-methyl-2-(morpholin-2-ylmethyl)phenyl)-3-fluorothieno[3,2-b]pyridin-2-yl)methyl)imidazolidine-2,4-dione]
19 | > 8.00 | Cc1cc(Cl)cc(-c2ncnc3cc(CN4C(=O)CCN(CCO)C4=O)sc23)c1C[C@@H]1CNCC(C)(C)O1 [Example 271, (R)-3-((4-(5-chloro-2-((6,6-dimethylmorpholin-2-yl)methyl)-3-methylphenyl)thieno[3,2-d]pyrimidin-6-yl)methyl)-1-(2-hydroxyethyl)dihydropyrimidine-2,4(1H,3H)-dione]
20 | > 8.00 | Cc1cc(Cl)cc(-c2ncnc3cc(CN4C(=O)CNC4=O)sc23)c1C[C@@H]1CNCC(C)(C)O1 [Example 273, (R)-3-((4-(5-chloro-2-((6,6-dimethylmorpholin-2-yl)methyl)-3-methylphenyl)thieno[3,2-d]pyrimidin-6-yl)methyl)imidazolidine-2,4-dione]
21 | 7.00 to 8.00 | Cc1cc(C(F)(F)F)cc(-c2ncnc3cc(CN4C(=O)C5CC5C4=O)sc23)c1CN1CCNC[C@@H]1C (stereo partly drawn) [Example 58, 3-((4-(3-methyl-2-(((S)-2-methylpiperazin-1-yl)methyl)-5-(trifluoromethyl)phenyl)thieno[3,2-d]pyrimidin-6-yl)methyl)-3-azabicyclo[3.1.0]hexane-2,4-dione]
22 | > 8.00 | Cc1cc(Cl)cc(-c2ncnc3cc(CN4C(=O)C5CC5C4=O)sc23)c1CC1CNCCS1 (stereo not shown) [Example 186, 3-((4-(5-chloro-3-methyl-2-(thiomorpholin-2-ylmethyl)phenyl)thieno[3,2-d]pyrimidin-6-yl)methyl)-3-azabicyclo[3.1.0]hexane-2,4-dione]
23 | > 8.00 | Cc1cc(Cl)cc(-c2ncnc3cc(CN4C(=O)CN(CC(F)(F)F)C4=O)sc23)c1CN1[C@@H](C)CNC[C@@H]1C [Example 272, 3-((4-(5-chloro-2-(((2S,6S)-2,6-dimethylpiperazin-1-yl)methyl)-3-methylphenyl)thieno[3,2-d]pyrimidin-6-yl)methyl)-1-(2,2,2-trifluoroethyl)imidazolidine-2,4-dione]
24 | 7.00 to 8.00 | Cc1cc(Cl)cc(-c2ncnc3cc(CN4C(=O)CCC45CC5)sc23)c1CC1CNCC(C)(C)O1 (stereo not shown) [Example 203, 4-((4-(5-chloro-2-((6,6-dimethylmorpholin-2-yl)methyl)-3-methylphenyl)thieno[3,2-d]pyrimidin-6-yl)methyl)-4-azaspiro[2.4]heptan-5-one]
25 | > 8.00 | Cc1cc(Cl)cc(-c2ccnc3cc(CN4C(=O)CCC4=O)sc23)c1CN1CCNCC1(C)C [Example 12, 1-((7-(5-chloro-2-((2,2-dimethylpiperazin-1-yl)methyl)-3-methylphenyl)thieno[3,2-b]pyridin-2-yl)methyl)pyrrolidine-2,5-dione]
26 | > 8.00 | Cc1cc(Cl)cc(-c2ccnc3cc(CN4C(=O)CCC4=O)sc23)c1C[C@@H]1CNCC(C)(C)O1 [Example 136, (R)-1-((7-(5-chloro-2-((6,6-dimethylmorpholin-2-yl)methyl)-3-methylphenyl)thieno[3,2-b]pyridin-2-yl)methyl)pyrrolidine-2,5-dione]
27 | 7.00 to 8.00 | Cc1cc(Cl)cc(-c2ccnc3cc(CN4C(=O)CCC4=O)sc23)c1CN1C[C@@H](C)N[C@@H](C)C1 [Example 19, 1-((7-(5-chloro-2-(((3 S,5R)-3,5-dimethylpiperazin-1-yl)methyl)-3-methylphenyl)thieno[3,2-b]pyridin-2-yl)methyl)pyrrolidine-2,5-dione]
28 | > 8.00 | Cc1cc(Cl)cc(-c2ncnc3cc(CN4C(=O)CCC4=O)sc23)c1CN1[C@@H](C)CNC[C@@H]1C [Example 77, 1-((4-(5-chloro-2-(((2S,6S)-2,6-dimethylpiperazin-1-yl)methyl)-3-methylphenyl)thieno[3,2-d]pyrimidin-6-yl)methyl)pyrrolidine-2,5-dione]
